Like-named read-outs stand apart in the source and are kept apart here. Where a SMILES comes first, the peptide text is derived from it.
Assays:
Assay in all cases: biochemical
Format in all cases: binding
[1] = molecular target: T1, HLA-DRB1*0101 (Homo sapiens, UniProt P01903+P01911, A100R/D57E/F55L/F60I/F76Y/I96L/L162R/M171V/P40L/Q125E/R42F/V115G/Y59C)
T1 construct: purchased
Summary of the method: (§1)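 IC50 values reflect how well each test peptide displaces a labeled high-affinity reference peptide from commercially available HLA-DRB1 allele monomers. Final test concentrations spanned 100,000 nM to 100 nM, with detection by europium-based time-resolved fluorescence after anti-HLA-DR capture.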

[2] = molecular target: HLA-DRB1*1301 (Homo sapiens, UniProt P01903+P01911, A100E/A169T/K41T/L162R/M171V/P40S/Q125H/Q178H/Q39Y/Q99D/R42S/S66N/T262R/W38E/Y61H)
Summary of the method: as §1

[3] = molecular target: HLA-DRB1*0801 (Homo sapiens, UniProt P01903+P01911, A100R/A103L/A169T/D86S/F76Y/H45Y/I96F/K41T/L162R/M171V/P40S/Q125H/Q178H/Q39Y/Q99D/R218S/R42G/S66Y/V115G/W38E)
Summary of the method: as §1

[4] = molecular target: HLA-DRB1*0701 (Homo sapiens, UniProt P01903+P01911, A100R/A102G/A103Q/D57E/D86V/E43K/F76Y/K127E/L162R/M171V/P40G/Q125H/Q99D/R33Q/R42Y/R54Q/S133A/S66F/T210M/V115G/Y107V/Y59L/Y89S)
Summary of the method: as §1

[5] = molecular target: T2, HLA-DRB1*1501 (Homo sapiens, UniProt P01903+P01911)
T2 construct: purchased
Summary of the method: as §1

[6] = molecular target: T3, HLA-DRB1*0401 (Homo sapiens, UniProt P01903+P01911, A100K/A169T/F76Y/I96L/K127E/L162R/M171V/N62H/P40V/Q125Y/R42H/S133A/S149N/S66Y/V115G/V209L/W38E)
T3 construct: purchased
Summary of the method: as §1

[7] = molecular target: HLA-DRB1*1101 (Homo sapiens, UniProt P01903+P01911, A100R/A169T/A87E/I96F/K41T/L162R/M171V/P40S/Q125H/Q178H/Q39Y/Q99D/R42S/S66Y/T262R/V115G/W38E)
Summary of the method: as §1

[8] = molecular target: HLA-DRB1*0301 (Homo sapiens, UniProt P01903+P01911, A100K/A102G/A103R/A169T/F55Y/I96L/K41T/L162R/M171V/P40S/Q125H/Q178H/Q39Y/R42S/S66N/T106N/T262R/W38E/Y61H)
HLA-DRB1*0301, sequence (P01903 26-254 limits assumed, other chains not shown): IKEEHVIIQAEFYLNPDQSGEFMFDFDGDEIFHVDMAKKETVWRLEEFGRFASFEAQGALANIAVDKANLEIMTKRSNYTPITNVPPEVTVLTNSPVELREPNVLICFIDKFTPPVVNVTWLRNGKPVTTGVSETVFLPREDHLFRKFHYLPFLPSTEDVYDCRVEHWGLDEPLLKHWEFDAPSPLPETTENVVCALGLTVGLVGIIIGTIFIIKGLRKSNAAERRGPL

HLA-DRB1*1101, sequence (P01903 26-254 limits assumed, other chains not shown): as above

Question: What does the source list for `CC[C@H](C)[C@H](NC(=O)[C@H](CCSC)NC(=O)[C@H](CO)NC(=O)[C@H](C)NC(=O)[C@H](CC(N)=O)NC(=O)[C@H](CCCCN)NC(=O)[C@H](CC(N)=O)NC(=O)[C@H](CCCCN)NC(=O)[C@H](Cc1ccccc1)NC(=O)CNC(=O)[C@H](CCC(=O)O)NC(=O)[C@H](CCCCN)NC(C)=O)C(=O)N[C@@H](CCCCN)C(=O)N[C@@H](CO)C(N)=O` [AMA1_006A] (Ac-KEGFKNKNASMIKS-NH2)?
Answer: IC50 [1]: 3.94 µM; IC50 ([2]; read-out: DRB1*1301 IC50): > 100 µM; IC50 [3]: 3.74 µM; IC50 ([4]; read-out: DRB1*0701 IC50): > 100 µM; IC50 ([5]; read-out: DRB1*1501 IC50): > 100 µM; IC50 ([6]; read-out: DRB1*0401 IC50): > 100 µM; IC50 ([7]; read-out: DRB1*1101 IC50): > 100 µM; IC50 ([8]; read-out: DRB1*0303 IC50): > 100 µM

Question: How did the IC50 [1] turn out when `CC[C@H](C)[C@H](NC(=O)[C@H](CO)NC(=O)[C@@H](NC(=O)[C@@H](N)CC(N)=O)[C@@H](C)CC)C(=O)N[C@@H](Cc1ccc(O)cc1)C(=O)N[C@@H](Cc1ccccc1)C(=O)N[C@@H](Cc1ccccc1)C(=O)N[C@@H](C)C(=O)N[C@@H](CO)C(=O)N[C@@H](Cc1ccccc1)C(=O)N[C@@H](Cc1ccccc1)C(=O)N[C@H](C(=O)N[C@@H](CC(C)C)C(=O)N[C@@H](Cc1ccc(O)cc1)C(=O)N[C@@H](Cc1ccccc1)C(=O)N[C@@H](C)C(=O)N[C@@H](CCCCN)C(N)=O)C(C)C` [EBA175_001A] (H-NISIYFFASFFVLYFAK-NH2) was run?
Answer: Its IC50 is 0.896 µM.

Question: And the IC50 [2]?
Answer: The IC50 was 1.19 µM.

Question: What about the IC50 [3] of the same molecule?
Answer: Its IC50 is 9.34 µM.

Question: What about the IC50 [4] of the same molecule?
Answer: Its IC50 is 0.983 µM.

Question: What about the IC50 [5] of the same molecule?
Answer: Its IC50 is 0.356 µM.

Question: And the IC50 [6]?
Answer: The IC50 was 0.719 µM.

Question: And the IC50 [7]?
Answer: The IC50 was 0.357 µM.

Question: What about the IC50 [8] of the same molecule?
Answer: The IC50 was 1.2 µM.

Question: How did the IC50 [1] turn out when `CC[C@H](C)[C@H](NC(=O)[C@H](CC(N)=O)NC(=O)[C@H](CC(N)=O)NC(=O)[C@H](Cc1ccccc1)NC(=O)[C@H](CC(N)=O)NC(=O)[C@H](CC(N)=O)NC(=O)[C@H](CC(N)=O)NC(=O)[C@H](CC(N)=O)NC(=O)[C@H](CO)NC(=O)[C@H](CCCNC(=N)N)NC(=O)[C@H](CCSC)NC(=O)[C@H](CC(N)=O)NC(=O)[C@H](CC(C)C)NC(=O)[C@@H](NC(=O)[C@H](CC(N)=O)NC(=O)CNC(=O)[C@@H](N)CO)C(C)C)C(N)=O` [EBA175_017A] (H-SGNVLNMRSNNNNFNNI-NH2) was run?
Answer: Its IC50 is 0.814 µM.

Question: And the IC50 [2]?
Answer: The IC50 was 7.42 µM.

Question: What about the IC50 [3] of the same molecule?
Answer: The IC50 was 13.9 µM.

Question: What about the IC50 [4] of the same molecule?
Answer: Its IC50 is 1.1 µM.

Question: And the IC50 [5]?
Answer: Its IC50 is 2.72 µM.

Question: What about the IC50 [6] of the same molecule?
Answer: Its IC50 is 2.56 µM.

Question: And the IC50 [7]?
Answer: Its IC50 is 3.13 µM.

Question: And the IC50 [8]?
Answer: Its IC50 is 1.99 µM.

Question: Which IC50 [1] does the source give for `CC[C@H](C)[C@H](NC(=O)[C@H](CO)NC(=O)[C@H](CC(N)=O)NC(=O)[C@H](Cc1ccc(O)cc1)NC(=O)[C@H](CO)NC(=O)[C@H](CC(C)C)NC(=O)[C@H](Cc1c[nH]cn1)NC(=O)[C@H](CCCCN)NC(=O)[C@H](Cc1ccc(O)cc1)NC(=O)[C@H](Cc1ccc(O)cc1)NC(=O)[C@H](CC(=O)O)NC(=O)[C@H](CC(C)C)NC(=O)[C@H](Cc1ccccc1)NC(=O)[C@@H](NC(=O)[C@H](Cc1ccc(O)cc1)NC(C)=O)[C@@H](C)O)C(=O)N[C@@H](Cc1ccc(O)cc1)C(=O)N[C@@H](Cc1c[nH]cn1)C(=O)N[C@@H](CCCCN)C(N)=O` [RH5_006A] (Ac-YTFLDYYKHLSYNSIYHK-NH2) here?
Answer: Its IC50 is 0.122 µM.

Question: And the IC50 [2]?
Answer: Its IC50 is 4.35 µM.

Question: What about the IC50 [3] of the same molecule?
Answer: The IC50 was 46.8 µM.

Question: And the IC50 [4]?
Answer: Its IC50 is 30.5 µM.

Question: And the IC50 [5]?
Answer: The IC50 was 4.13 µM.

Question: And the IC50 [6]?
Answer: The IC50 was 4.39 µM.

Question: And the IC50 [7]?
Answer: Its IC50 is 2.45 µM.

Question: And the IC50 [8]?
Answer: Its IC50 is 8.48 µM.

Question: Which results are given for `CC[C@H](C)[C@H](NC(=O)[C@H](Cc1ccc(O)cc1)NC(=O)[C@@H]1CCCN1C(=O)[C@H](CC(N)=O)NC(=O)[C@H](CC(=O)O)NC(C)=O)C(=O)N[C@@H](CO)C(=O)N[C@@H](CCCCN)C(=O)N[C@@H](Cc1ccc(O)cc1)C(=O)NCC(=O)N[C@@H](CC(N)=O)C(=O)N[C@@H](CCCCN)C(=O)N[C@@H](CC(C)C)C(=O)N[C@@H](CS)C(=O)N[C@@H](CCC(=O)O)C(=O)N[C@@H](CCCNC(=N)N)C(N)=O` [RIPR_014] (Ac-DNPYISKYGNKLCER-NH2)?
Answer: IC50 ([1]; binding inhibition assay, NB = non-binder (no dose-dependent inhibition), read-out: DRB1*0101 IC50): 0.092 µM; IC50 ([3]; binding inhibition assay, NB = non-binder (no dose-dependent inhibition), read-out: DRB1*0801 IC50): 95 µM; IC50 ([4]; binding inhibition assay, NB = non-binder (no dose-dependent inhibition), read-out: DRB1*0701 IC50): > 100 µM; IC50 ([5]; binding inhibition assay, NB = non-binder (no dose-dependent inhibition), read-out: DRB1*1501 IC50): 0.025 µM; IC50 ([8]; binding inhibition assay, NB = non-binder (no dose-dependent inhibition), read-out: DRB1*0303 IC50): > 100 µM

Reference: paper PMC8294059, “Identification and Immune Assessment of T Cell Epitopes in Five Plasmodium falciparum Blood Stage Antigens to Facilitate Vaccine Candidate Selection and Optimization” (Frontiers in Immunology, 2021)
